We go through 41 compounds from US10940139B2, “Compounds that interact with the Ras superfamily for the treatment of cancers, inflammatory diseases, rasopathies, and fibrotic disease” (Shy Therapeutics LLC, priority 2017, dated 2021).

A word on the inhibition: it is the drop in the measured response relative to a control, in per cent.

Test [1] has as its system TNFα production in RAW 264.7 macrophage cell line. Kind of test: Mouse TNF alpha quantification assay (LPS-stimulated macrophages, ELISA). The test is classed as cell-based. The settings on record: RAW264.7, RAW 264.7 murine leukemia virus transformed macrophage cell lines, LPS stimulation, read-out: TNF-α % Inhibition at 30 μM. For orientation: ELISA stands for enzyme-linked immunosorbent assay.

Test [2] concerns IL6 production in RAW 264.7 macrophage cell line. Description: Mouse IL6 quantification assay (LPS-stimulated macrophages, ELISA). The test is classed as cell-based. The conditions noted are these: RAW264.7, RAW 264.7 murine leukemia virus transformed macrophage cell lines, LPS stimulation, read-out: IL-6 % Inhibition at 30 μM.

As for `Cc1sc2c(O)nc(-c3nccn3C)nc2c1-c1ccc(F)cc1F` [drawing 2448], the figures for the inhibition at 30 µM in test [1] and in test [2] were 0% and 51 to 75%, respectively.
Take `CS(=O)(=O)N1CCCc2cc(C(=O)Nc3nnc(-c4ccccn4)[nH]3)ccc21` [drawing 2002]: the inhibition at 30 µM lay in the range of 1 to 25% in test [1] and 26 to 50% in test [2].
For `CC1(O)CCN(C(=O)c2csc3c(O)nc(-c4ccccn4)nc23)CC1` [drawing 2110] the same measures were 0% and 51 to 75%.
The matching figures for `c1ccc(-c2csc3nc(-c4ccccn4)nc(N4CCN(CCN5CCCC5)CC4)c23)cc1` [drawing 2153]: 0% and 26 to 50%.
Consider `O=C(OCCc1ccccc1)N1CCCc2c(O)nc(-c3ccccn3)nc21` [drawing 2085], for which the inhibition at 30 µM lay within 26 to 50% in test [1] and 76 to 100% in test [2].
For `N#Cc1ccc(COCC(=O)Nc2ccnc(-c3ccccn3)n2)cc1` [drawing 2208], the inhibition at 30 µM in test [1] and in test [2] was 1 to 25% throughout.
In the case of `Oc1nc(-c2ccccn2)nc2c(-c3ccc(OC4CCOCC4)cc3)csc12` [drawing 2259], the inhibition at 30 µM is 0% in test [1] and 76 to 100% in test [2].
Regarding `COCC1CCN(C(=O)c2csc3c(O)nc(N)nc23)CC1` [drawing 2090], the inhibition at 30 µM in test [1] and in test [2] was 1 to 25% in each case.
With `CCCCSc1nc(-c2cccs2)c(C(=O)C(F)(F)F)cc1C#N` [drawing 2053], the results for the inhibition at 30 µM in test [1] and in test [2] were 0% and 51 to 75%, respectively.
With `CCCOc1ccc2ccccc2c1CN(C)S(=O)(=O)N1CC(C)OC(C)C1` (stereo not shown) [drawing 2061], the figures for the inhibition at 30 µM in test [1] and in test [2] were 51 to 75% and 1 to 25%, respectively.
The matching figures for `CC(O)CNc1nc(-c2ccccn2)nc2scc(-c3ccccc3)c12` (stereo not shown) [drawing 2042]: 1 to 25% and 26 to 50%.
Consider `COc1ccnc(-c2nc(O)c3c(C(F)(F)F)csc3n2)c1` [drawing 2226], for which the results for the inhibition at 30 µM in test [1] and in test [2] were 1 to 25% and 51 to 75%, respectively.
With `CCN(CC)C(=O)CN1CCN(c2nc(-c3ccccn3)nc3scc(-c4ccccc4)c23)CC1` [drawing 2150], the inhibition at 30 µM lay within 51 to 75% in test [1] and 76 to 100% in test [2].
Turning to `COc1ccc(-c2c(-c3ccccc3)sc3c(O)nc(-c4nccn4C)nc23)cn1` [drawing 2420], the inhibition at 30 µM in test [1] and in test [2] was 26 to 50% throughout.
With `O=C(Nc1nnc(-c2ccccn2)[nH]1)C1Cc2cc(Cl)ccc2O1` (stereo not shown) [drawing 1995], the inhibition at 30 µM fell in the range of 1 to 25% in test [1] and 51 to 75% in test [2].
Take `Cc1sc2nc(-c3ccccn3)nc(NCCCO)c2c1-c1ccccc1` [drawing 2045]: the inhibition at 30 µM in test [1] and in test [2] was 1 to 25% throughout.
Take `Oc1nc(-c2ccccn2)nc2c(C3CC3)csc12` [drawing 2345]: the inhibition at 30 µM in test [1] and in test [2] was 1 to 25% throughout.
Consider `CNC(=O)CN1CCN(c2nc(-c3ccccn3)nc3scc(-c4ccccc4)c23)CC1` [drawing 2144], for which the inhibition at 30 µM in test [1] and in test [2] was 1 to 25% throughout.
Take `Cc1cc2c(=O)nc(-c3cc(OCC(F)F)ccn3)[nH]c2s1` [drawing 2031]: the inhibition at 30 µM in test [1] and in test [2] was 1 to 25% in each case.
Consider `CCn1nc(C)cc1-c1csc2c(O)nc(-c3ccccn3)nc12` [drawing 2295], for which the inhibition at 30 µM in test [1] lay in the range of 51 to 75%; in test [2], 76 to 100%.
Regarding `COCCCNc1nc(-c2nccn2C)nc2sc(-c3ccccc3)c(-c3ccccc3)c12` [drawing 2397], the inhibition at 30 µM in test [1] and in test [2] was 76 to 100% each time.
`Cc1sc2nc(-c3ccccn3)nc(NCCc3nccn3C)c2c1-c1ccccc1` [drawing 2134]: the inhibition at 30 µM was 0% in test [1] and 1 to 25% in test [2].
On to `CS(=O)(=O)c1cccc(C(=O)N2CCCc3c(O)nc(-c4ccccn4)nc32)c1` [drawing 2079], for which the inhibition at 30 µM in test [1] is 0%; in test [2] it was 51 to 75%.
As for `Cn1cnc(-c2nc(O)c3scc(-c4cccc(C(F)(F)F)c4)c3n2)c1` [drawing 2431], the inhibition at 30 µM in test [1] and in test [2] was 0% throughout.
Turning to `COc1nc(-c2ccccn2)nc2c(C3CCCCC3)csc12` [drawing 2317], the inhibition at 30 µM in test [1] is 1 to 25%; in test [2] it was 26 to 50%.
In the case of `Oc1nc(-c2ccccn2)nc2c(-c3cccc(C(F)(F)F)c3)csc12` [drawing 2265], the inhibition at 30 µM in test [1] and in test [2] was 76 to 100% each time.
In the case of `O=C(c1cocn1)N1CCCc2c(O)nc(-c3ccccn3)nc21` [drawing 2081], the inhibition at 30 µM in test [1] and in test [2] was 1 to 25% in each case.
In the case of `O=C(c1csc2c(O)nc(-c3ccccn3)nc12)N1CCc2ccccc2CC1` [drawing 2116], the inhibition at 30 µM in test [1] was 0%; in test [2] it was 51 to 75%.
As to `COCC(C)Nc1nc(-c2ccccn2)nc2sc(-c3ccncc3)c(-c3ccccc3)c12` (stereo not shown) [drawing 2368], the inhibition at 30 µM was 26 to 50% in test [1] and 0% in test [2].
The matching figures for `O=C(c1cc2nc(-c3ccccn3)nc(O)c2s1)N1CCOC(c2ccccc2)C1` (stereo not shown) [drawing 2235]: 1 to 25% and 1 to 25%.
Take `O=C(Nc1nnc(-c2ccccn2)[nH]1)c1nc(N2CCOCC2)ncc1Cl` [drawing 1964]: the inhibition at 30 µM is 0% in test [1] and 1 to 25% in test [2].
With `NC(=O)C1(CNc2nc(-c3ccccn3)nc3c2CCC3)CCCC1` [drawing 2043], the results for the inhibition at 30 µM in test [1] and in test [2] were 1 to 25% and 26 to 50%, respectively.
Take `O=C(c1ccccn1)N1CCCc2c(O)nc(-c3ccccn3)nc21` [drawing 2087]: the inhibition at 30 µM in test [1] and in test [2] was 1 to 25% each time.
Consider `O=c1[nH]c(-c2ccccn2)nc2c([C@@H]3O[C@H](CO)[C@@H](O)[C@H]3O)csc12` [drawing 2354], for which the inhibition at 30 µM was in the range of 26 to 50% in test [1] and 1 to 25% in test [2].
In the case of `COc1ccc2c(ccn2CC(=O)Nc2nnc(-c3ccccn3)[nH]2)c1` [drawing 1940], the inhibition at 30 µM in test [1] lay in the range of 1 to 25%; in test [2], 26 to 50%.
`COc1nc(-c2ccccn2)nc2c1c(-c1ccccc1)nn2-c1ccccn1` [drawing 2367]: the inhibition at 30 µM in test [1] and in test [2] was 76 to 100% each time.
As for `Cc1ccccc1N1CCN(C(=O)c2csc3c(O)nc(-c4ccccn4)nc23)CC1` [drawing 2168], the inhibition at 30 µM was in the range of 1 to 25% in test [1] and 51 to 75% in test [2].
Consider `Oc1nc(-c2ccccn2)nc2c(-c3ccc(OC(F)F)cc3F)csc12` [drawing 2268], for which the inhibition at 30 µM in test [1] lay in the range of 26 to 50%; in test [2], 76 to 100%.
Turning to `O=C(Nc1nnc(-c2ccccn2)[nH]1)C1CCCC(C(F)(F)F)C1` (stereo not shown) [drawing 1972], the inhibition at 30 µM in test [1] is 0%; in test [2], 1 to 25%.
Consider `Cc1nnc(C(Nc2nc(-c3ccccn3)nc3scc(-c4ccccc4)c23)c2ccccc2)n1C` (stereo not shown) [drawing 2133], for which the inhibition at 30 µM in test [1] and in test [2] was 76 to 100% each time.
Regarding `CC(C)Cc1csc2c(O)nc(-c3ccccn3)nc12` [drawing 2338], the inhibition at 30 µM in test [1] and in test [2] was 76 to 100% each time.
